Laboratory results reported in patent US20230310540A1, “PEPTIDE COMPOSITIONS AND METHODS OF USE THEREOF” (priority 2020, published 2023).
≈ marks a conversion by molar mass, not a printed value. Like-named read-outs stand apart in the source and are kept apart here.

Tests used:
[1] = system: Pseudomonas aeruginosa (CF mucoid and non-mucoid); experiment: Broth dilution MIC against P. aeruginosa isolates from cystic fibrosis patients; type: cell-based
[2] = system: Klebsiella pneumoniae clinical isolates
[3] = system: Methicillin-resistant Staphylococcus aureus (SAP400); experiment: Broth dilution MIC against MRSA isolate; type: cell-based
[4] = system: Acinetobacter baumannii (PDR); experiment: Broth dilution MIC against pan drug-resistant A. baumannii isolate; type: cell-based; details: isolate AB (PDR)
[5] = isolate KP (Morici), ATCC #33495

| Compound | MIC ([1]; isolate PA (mucoid)) | MIC ([1]; isolate PA (non-mucoid)) | MIC ([2]; isolate KP 2146 (NDM-1)) | MIC ([2]; isolate KP (6)) | MIC ([2]; isolate KP (46)) | MIC ([2]; isolate KP (398)) | MIC ([2]; isolate KP (CRE)) | MIC [2, 5] | MIC ([2]; isolate KP (ST258C3)) | MIC ([2]; isolate KP (ST258I2)) | MIC ([2]; isolate KP (ST396)) | MIC ([2]; isolate KP (St258 C2)) | MIC [3] | MIC [4] |
| --- | --- | --- | --- | --- | --- | --- | --- | --- | --- | --- | --- | --- | --- | --- |
| Gentamicin | 5.5 µM | 8.3 µM | >150 µM | >150 µM | 1.6 µM | 1.9 µM | 5.2 µM | 1.9 µM | >150 µM | 8.3 µM | 2 µM | >150 µM | >150 µM | >150 µM |
| CC(C)(O/N=C(\C(=O)N[C@@H]1C(=O)N2C(C(=O)[O-])=C(C[n+]3ccccc3)CS[C@H]12)c1csc(N)n1)C(=O)O [CAZ, Ceftazidime] | 115.9 µM (≈ 63.3 µg/mL) | >150 µM | >150 µM | >150 µM | >150 µM | 132.7 µM (≈ 72.5 µg/mL) | >150 µM | >150 µM | >150 µM | >150 µM | >150 µM | >150 µM | >150 µM | >150 µM |
| CO/N=C(\C(=O)N[C@@H]1C(=O)N2C(C(=O)O)=C(CSc3nc(=O)c(O)nn3C)CS[C@H]12)c1csc(N)n1 [CRO, Ceftriaxone] | 137.2 µM (≈ 76.1 µg/mL) | 88.45 µM (≈ 49.1 µg/mL) | >150 µM | >150 µM | 1.9 µM (≈ 1.05 µg/mL) | 0.2 µM (≈ 0.111 µg/mL) | 45 µM (≈ 25 µg/mL) | 0.3 µM (≈ 0.166 µg/mL) | >150 µM | >150 µM | 1.9 µM (≈ 1.05 µg/mL) | >150 µM | >150 µM | >150 µM |
| C[C@@H](O)[C@H]1C(=O)N2C(C(=O)O)=C(S[C@@H]3CN[C@H](C(=O)N(C)C)C3)[C@H](C)[C@H]12 [MEM, Meropenem] | 13.3 µM (≈ 5.1 µg/mL) | 4 µM (≈ 1.53 µg/mL) | >150 µM | 0.2 µM (≈ 0.0767 µg/mL) | 0.4 µM (≈ 0.153 µg/mL) | 0.2 µM (≈ 0.0767 µg/mL) | 108.3 µM (≈ 41.5 µg/mL) | 0.2 µM (≈ 0.0767 µg/mL) | >150 µM | >150 µM | 0.3 µM (≈ 0.115 µg/mL) | >150 µM | >150 µM | >150 µM |
